Entries after “also recorded” stand apart in the source; their conditions may differ. Marks after values point to notes of the source that are not given here.
How the values were obtained:
αR448fs = test: Membrane abundance of αR448fs; assay type: cell-based, human; conditions: n = 4
Procedure: Cell surface biotinylation was performed as previously described ([26]). In brief, A549 cells or transiently transfected HEK-293 cells were grown in 10 cm dishes in 37°C, 5% CO2 incubator in DMEM medium supplemented with 5% FBS. […] Medium was aspirated, and then cells were washed twice with 10 ml ice-cold phosphate-buffered saline (PBS), covered with 2.5 mg EZ-Link Sulfo-NHS-SS-Biotin (Thermo Scientific, Rockford, USA), dissolved in 10 ml ice-cold PBS, and incubated at 4°C with gentle agitation for 30 min. Fifty milliliters of quenching solution were added to cells; then cells were scraped in solution and transferred to fresh 50 ml tube. Cell suspension was centrifuged at 500 × g for 3 min. Supernatant was discarded, and 5 ml of Tris-buffered saline (TBS) was added to the cell pellet. The cell pellet was resuspended and centrifuged at 500 × g for 3 min. Supernatant was discarded and cell pellet was resuspended in lysis buffer containing protease inhibitor cocktail (10 µM pepstatin A, 10 µM phenylmethylsulfonyl fluoride, and 10 µM leupeptin) and transferred to fresh 1.5 ml centrifuge tube. Cell pellet was then homogenized on ice by ultrasonication using 1 s bursts and incubated on ice for at least 30 min. Intact cells and nuclei were pelleted by centrifugation at 10,000 × g for 2 min under cooling conditions. Pellet was then discarded and supernatant was transferred to fresh tube, incubated overnight with 0.5 ml NeutrAvidin Agarose under gentle rotation at 4°C and centrifuged at 500 × g for 5 min under cooling conditions. Supernatant was then discarded and the pellet washed twice with 200 µl lysis buffer. The biotinylated proteins were eluted with 100 µl sodium dodecyl sulfate (SDS) sample buffer (62.5 mM Tris, pH 6.8, 1% SDS, 10% glycerine, 50 mM dithiothreitol) containing 10 µM E64 at 65°C for 10 min. Sample was then centrifuged at 500 × g for 2 min. Pellet was discarded and supernatant subjected to protein electrophoresis and immunoblotting. The biotinylated proteins were separated under reducing conditions by SDS-PAGE using 7.5% SDS gel along with prestained protein marker (cat. #12949 from Cell Signaling). Proteins were then transferred onto a nitrocellulose membrane (UltraCruzTM […], Santa Cruz Biotechnology, TX, USA) by semi-dry blotting at 25 V for 30 min. Unspecific binding sites were blocked by incubating the membrane overnight at 4°C with 3% FBS in PBS supplemented with 0.02% sodium azide. Membrane was then incubated for 90 min with primary antibody (anti-α-hENaC, anti-δ-hENaC, and anti-β-actin from Sigma Aldrich; anti-β- and anti-γ-hENaC from Santa Cruz Biotechnology). […] Exposed films were scanned and quantified using ImageJ (NIH, MD, USA). […]

α-ENaC (WT αβγ-ENaC) = test: Membrane abundance of WT α-ENaC (cell surface biotinylation, Western blot); assay type: cell-based, human; conditions: HEK-293, 200 nM solnatide, relative to WT control (=1), p < 0.001 vs control
Procedure: (§1) Cell surface biotinylation was performed as previously described ([26]). In brief, A549 cells or transiently transfected HEK-293 cells were grown in 10 cm dishes in 37°C, 5% CO2 incubator in DMEM medium supplemented with 5% FBS. […] Medium was aspirated, and then cells were washed twice with 10 ml ice-cold phosphate-buffered saline (PBS), covered with 2.5 mg EZ-Link Sulfo-NHS-SS-Biotin (Thermo Scientific, Rockford, USA), dissolved in 10 ml ice-cold PBS, and incubated at 4°C with gentle agitation for 30 min. Fifty milliliters of quenching solution were added to cells; then cells were scraped in solution and transferred to fresh 50 ml tube. Cell suspension was centrifuged at 500 × g for 3 min. Supernatant was discarded, and 5 ml of Tris-buffered saline (TBS) was added to the cell pellet. The cell pellet was resuspended and centrifuged at 500 × g for 3 min. Supernatant was discarded and cell pellet was resuspended in lysis buffer containing protease inhibitor cocktail (10 µM pepstatin A, 10 µM phenylmethylsulfonyl fluoride, and 10 µM leupeptin) and transferred to fresh 1.5 ml centrifuge tube. Cell pellet was then homogenized on ice by ultrasonication using 1 s bursts and incubated on ice for at least 30 min. Intact cells and nuclei were pelleted by centrifugation at 10,000 × g for 2 min under cooling conditions. […] Exposed films were scanned and quantified using ImageJ (NIH, MD, USA).

α-hENaC = target: T1, α-hENaC (Homo sapiens, UniProt P37088); set-up: method as in PMID 24077967; conditions: α-hENaC alone, control current 55.3 ± 5.5 pA, mean ± S.E.; cited from earlier work
T1 construct: expressed in transfected cells; host or cells: HEK-293
T1 sequence (P37088 1-669): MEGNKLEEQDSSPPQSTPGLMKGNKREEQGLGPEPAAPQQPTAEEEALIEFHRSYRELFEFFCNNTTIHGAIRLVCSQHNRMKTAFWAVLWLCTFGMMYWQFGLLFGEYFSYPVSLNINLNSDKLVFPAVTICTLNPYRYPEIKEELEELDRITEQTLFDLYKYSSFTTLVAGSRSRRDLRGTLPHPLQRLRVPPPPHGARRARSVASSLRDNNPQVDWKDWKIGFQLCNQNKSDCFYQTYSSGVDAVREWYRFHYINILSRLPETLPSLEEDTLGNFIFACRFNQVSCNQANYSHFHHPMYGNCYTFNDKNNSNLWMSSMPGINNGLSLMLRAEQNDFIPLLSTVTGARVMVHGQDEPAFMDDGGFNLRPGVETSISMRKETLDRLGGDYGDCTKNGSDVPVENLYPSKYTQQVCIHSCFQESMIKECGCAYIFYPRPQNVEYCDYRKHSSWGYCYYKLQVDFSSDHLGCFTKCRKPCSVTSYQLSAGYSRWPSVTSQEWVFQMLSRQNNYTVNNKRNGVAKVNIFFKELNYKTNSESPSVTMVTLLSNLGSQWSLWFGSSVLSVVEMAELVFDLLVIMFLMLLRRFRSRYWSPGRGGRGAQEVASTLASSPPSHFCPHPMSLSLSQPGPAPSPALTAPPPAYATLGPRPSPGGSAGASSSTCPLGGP

δD522Xβγ-ENaC = conditions: cited from earlier work
[1] = test system: V567A/E568A and V567A/E568A/E571A α-ENaC mutants; conditions: cited from earlier work
From the text: Lucas et al. ([31]) identified positions V567, E568, and E571 in the α-subunit as the crucial sites for binding of the lectin-like domain of TNF. They generated alanine replacement mutants in this region of α-ENaC and examined its interaction with the TIP peptide. […] In fact, this applies to all the frameshift mutants examined here.

αE272fs = test: Membrane abundance of αE272fs; assay type: cell-based, human; conditions: 200 nM, relative to WT control (=1), own control 0.35 ± 0.06, p < 0.001 vs control
Procedure: as §1, with “USA). […]” for “USA).”

For `C[C@@H]1NC(=O)CNC(=O)[C@H](CCC(=O)O)NC(=O)[C@@H]2CCCN2C(=O)[C@H]([C@@H](C)O)NC(=O)[C@H](CCC(=O)O)NC(=O)[C@H](CCCNC(=N)N)NC(=O)[C@H](CCC(N)=O)NC(=O)CNC(=O)[C@@H](N)CSSC[C@@H](C(=O)O)NC(=O)[C@H](Cc2ccc(O)cc2)NC(=O)[C@H](Cc2c[nH]c3ccccc23)NC(=O)[C@@H]2CCCN2C(=O)[C@H](CCCCN)NC(=O)[C@H](C)NC(=O)[C@H](CCC(=O)O)NC1=O` [solnatide, L-cysteine, L-cysteinylglycyl-L-glutaminyl-L-arginyl-L-α-glutamyl-L-threonyl-L-prolyl-L-α-glutamylglycyl-L-alanyl-L-α-glutamyl-L-alanyl-L-lysyl-L-prolyl-L-tryptophyl-L-tyrosyl-, cyclic (1→17)-disulfide], the “Membrane abundance” value (αR448fs; glycosylated αR448fs, 200 nM solnatide, 5 min) was “highly increased after 5 min of solnatide treatment”, the “Increase in membrane abundance after PNGase F” value (αR448fs; αR448fs, 200 nM solnatide, 100 units PNGase F) was “completely abolished in deglycosylated mutants; also recorded: after PNGase F treatment no differences can be observed” and the “Membrane abundance, solnatide 5 min” value (αR448fs; αR448fs, 200 nM, 5 min, relative to WT control (=1), own control 1.32 ± 0.10, p < 0.001 vs control) was 5.88 ± 0.32***. The “Membrane abundance, solnatide 10 min” value (αR448fs; αR448fs, 200 nM, 10 min, relative to WT control (=1), own control 1.32 ± 0.10) was 1.30 ± 0.12, the “Membrane abundance, solnatide 5 min” value (α-ENaC (WT αβγ-ENaC); 5 min, normalized to β-actin) was 1.48 ± 0.12 and the “Membrane abundance, solnatide 10 min” value (α-ENaC (WT αβγ-ENaC); 10 min) was 1.40 ± 0.09. The “Maximal induced current, solnatide” value (α-hENaC) was 11.3 ± 6.2 pA, the “Effect of solnatide on amiloride-sensitive current” value (δD522Xβγ-ENaC) was “a residual albeit non-significant increase in the amiloride-sensitive current” and the “Current increase, glycosylation sites removed” value (δD522Xβγ-ENaC; glycosylation sites in extracellular loop removed by mutation) was “small increase was not seen”. The “Binding capacity” value ([1]; double V567A/E568A and triple V567A/E568A/E571A α-ENaC mutants) was “reduced binding capacity”, the “Increase in Po” value ([1]; double and triple α-ENaC TM2 alanine mutants vs WT ENaC) was “abolition of the increase in Po” and the “Membrane abundance, solnatide 5 min” value (αE272fs; 5 min) was 0.72 ± 0.03. The “Membrane abundance, solnatide 10 min” value (αE272fs; 10 min) was 0.64 ± 0.05.

— article PMC5447021, “TNF Lectin-Like Domain Restores Epithelial Sodium Channel Function in Frameshift Mutants Associated with Pseudohypoaldosteronism Type 1B” (Frontiers in Immunology, 2017)
